Molecules are shown by their SMILES. A value given as a limit tells only on which side of the number the result lay.

This experiment has as its target Protein Wnt-3a (Human, UniProt P56704). Briefly: WNT Pathway Reporter Gene Assay. How it is done: Materials and Methods: NIH3T3 mouse fibroblast cells (American Type Culture Collection, Manassas, Va.) were transfected with a plasmid containing a luciferase gene driven by 5 copies of TCF elements. Stale cells selected with 1 μg/mL of Zeocin (Gibco/Invitrogen, Carlsbad, Calif.) are cultured in Dulbecco's modified Eagle's medium (Invitrogen, Carlsbad, Calif.) supplemented with 10% FBS (Invitrogen), 50 unit/mL penicillin and 50 μg/mL of streptomycin (Invitrogen) at 37° C. with 5% CO2 in air atmosphere. […] After 16 hours, the firefly luciferase activities are measured with the Steady-Glo Luciferase Assay System (Promega). The cells were treated with different concentrations of compounds of this invention during the co-culture. […] To normalize for cell quantity and viability, CellTiter Glo assay is next performed in a duplicate plate.

Protein Wnt-3a, sequence (P56704 whole entry): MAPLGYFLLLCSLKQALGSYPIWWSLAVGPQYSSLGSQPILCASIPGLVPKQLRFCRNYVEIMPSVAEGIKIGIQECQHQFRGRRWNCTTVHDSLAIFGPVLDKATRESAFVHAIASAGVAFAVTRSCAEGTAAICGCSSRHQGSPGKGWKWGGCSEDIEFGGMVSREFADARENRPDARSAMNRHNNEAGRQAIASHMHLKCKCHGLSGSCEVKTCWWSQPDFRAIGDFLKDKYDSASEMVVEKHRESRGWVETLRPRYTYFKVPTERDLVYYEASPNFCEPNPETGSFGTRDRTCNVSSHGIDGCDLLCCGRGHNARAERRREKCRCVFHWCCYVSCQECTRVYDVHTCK

Broadly, the IC50 is the concentration at which inhibition is half-maximal. The low end stands for higher potency, the high end for lower potency. On to `Cc1cc(-c2ccc(CNc3nccc4cc(-c5ccnc(C)c5)ncc34)cc2)ccn1` [US10285988, Compound 1], for which the IC50 was below 3 nM.

Consider `Cc1cc(-c2ccc(CNc3nccc4cc(-c5cnccn5)ncc34)cc2)ccn1` [US10285988, Compound 35], for which the IC50 was below 3 nM.

In turn, `Cc1cc(-c2cc3ccnc(NCc4ccc(-c5ccnc(F)c5)c(F)c4)c3cn2)ccn1` [US10285988, Compound 28] yielded an IC50 below 3 nM.

Regarding `Cc1cc(-c2cc3ccnc(NCc4ccc(-c5ccnc(C)c5)c(C)c4)c3cn2)ccn1` [US10285988, Compound 2], the half-maximal inhibitory concentration (IC50) was below 3 nM.

As for `Cc1cc(-c2ncc(CNc3nccc4cc(-c5cnccn5)ccc34)cc2C)ccn1` [US10285988, Compound 70], the IC50 was below 3 nM.

(Values after BindingDB's records for patent US10285988 (Curegenix, 2019).)
